# From patent publication US9549911B2, “Ginger metabolites and uses thereof” (North Carolina A&T State University, priority 2012, dated 2017)
# Where two headings read alike, the source gives them in different places.
# What was measured:
# [1] = test system: HCT-116 cells; assay: Western blot analysis of apoptosis markers and p53 (Part 5); format: cell-based, human; settings: HCT-116 (p53 wild-type), 24 hours; M2, 6S 10, 20 or 40 μM; 8S, M2′, 10S, M2″ 20 μM
# Method: (§1) Cell lysates were prepared in ice-cold RIPA lysis buffer [25 mM Tris-HCl (pH 7.6), 150 mM NaCl, 1% NP-40, 1% sodium deoxycholate, 0.1% SDS, Thermo Fisher Scientific] supplemented with a protease inhibitor cocktail (AEBSF, aprotinin, bestatin, E-64, leupeptin and pepstatin A in DMSO with EDTA, Thermo Fisher Scientific). Protein content was measured by a Pierce BCA Assay Kit (Thermo Fisher Scientific). Protein contents of cell lysates (30 μg protein/lane) were resolved by SDS-PAGE. Proteins were then electro-transferred onto PVDF membranes and blots were blocked for one hour at room temperature in 1×TBS with 1% Casein (Bio-Rad Laboratories, Berkeley, Calif.). Blots were then incubated overnight at 4° C. with the desired primary antibody diluted in TBS with 0.5% Tween-20. Blots were then washed with TBS-Tween 20 and probed for 1 hour with the appropriate secondary antibody (1:1000). Protein bands were visualized with chemiluminescence using West Femto maximum detection substrate (Thermo Fisher Scientific). To confirm equal protein loading in each lane, immunoblots were stripped and re-probed for β-actin. Protein fold-induction was calculated by normalizing the intensity of the band of interest to β-actin first, and then to DMSO control lanes.
# [2] = test system: HT-29 cells; assay: as above; format: cell-based, human; settings: HT-29 (p53 mutant), 24 hours; M2, 6S 10, 20 or 40 μM; 8S, M2′, 10S, M2″ 20 μM
# Method: as §1
# [3] = test system: human colon cancer cells HCT-116; assay: MTT toxicity in colon cancer and normal colon cells (Part 5); format: cell-based; settings: HCT-116, 24 hours
# Method: (§2) Cell viability was determined by an MTT colorimetric assay. […] The reading reflected the number of viable cells and was expressed as a percentage of viable cells in the control. CCD-18Co cells were grown in EMEM. Both HCT-116 and HT-29 cells were cultured in McCoy's 5A medium. All of the above media were supplemented with 10% fetal bovine serum, 1% penicillin/streptomycin, and 1% glutamine, and the cells were kept in a 37° C. incubator with 95% humidity and 5% CO2.
# [4] = test system: human colon cancer cells HT-29; assay: as above; format: cell-based; settings: HT-29 (p53 mutant), 24 hours
# Method: as §2
# [5] = test system: HCT-116 cells; assay: TUNEL apoptosis assay (Part 1); format: cell-based, human; settings: 24 h
# Method: (§3) HCT-116 and H-1299 cells were seeded in six-well plates at 1.0×10^5 cells/well and were incubated at 37° C. in a 5% CO2 incubator. After 24 h, fresh media supplemented with DMSO (control), [6]-shogaol (10 or 20 μM), M9 (40 or 80 μM), or M11 (40 or 80 μM) were added to the wells. After 24-h incubation, cells were washed and pretreated for 15 min at room temperature with a solution of 20 μg/ml proteinase K. Cells were then washed twice with PBS pH 7.4 and were fixed for 10 min at room temperature using 10% neutral formaldehyde solution. After two washes in distilled H2O, cells were resuspended in 100 μl of distilled H2O and were applied on silanized microscope slides. Slides were incubated overnight at 37° C. and were washed twice with PBS. Terminal deoxynucleotidyl transferase deoxyuridine triphosphate nick-end labeling (TUNEL) assay was then performed according to the manufacturer's protocol. Cells were observed under 400× power using a Zeiss A1 microscope (Carl Zeiss, Inc., Thornwood, N.Y.).
# (§4) Ten fields per slide were evaluated, and TUNEL-positive cells (with brown coloration in the nucleus) were expressed as a percentage of the total number of cells contained in a field. Statistical Analysis. For simple comparisons between two groups, twotailed Student's t test was used. A p value of less than 0.05 was considered statistically significant in all the tests.
# [6] = test system: H-1299 cells; assay: TUNEL apoptosis assay (Part 1); format: cell-based, human; settings: 24 h
# Method: as §3, §4
# [7] = test system: H-1299 human lung cancer cells; assay: MTT growth inhibition of human cancer cells, 24 h (Part 1); format: cell-based; settings: Homo sapiens, NCI-H1299; H-1299, 24 h, 0 to 80 μM
# Method: (§5) The reading reflected the number of viable cells and was expressed as a percentage of viable cells in the control. Both HCT-116 and H-1299 cells were cultured in McCoy's 5A medium. All of the above media were supplemented with 10% fetal bovine serum, 1% penicillin/streptomycin, and 1% glutamine, and the cells were kept in a 37° C. incubator with 95% humidity and 5% CO2.
# [8] = test system: HCT-116 human colon cancer cells; assay: as above; format: cell-based; settings: Homo sapiens; HCT-116, 24 h, 0 to 80 μM
# Method: as §5
# [9] = in vitro; format: cell-based, human; settings: human; normal colon cells CCD-18Co, 48 h; read-out: IC50 (cytotoxicity, MTT)
# Method: (§6) Growth inhibition of human cancer and normal cells. Cell growth inhibition was determined by a MTT colorimetric assay. Human colon cancer cells HCT-116, human lung cancer cells H-1299, human colon fibroblast cells CCD-18Co, and human lung fibroblast cells IMR-90 were plated in 96-well microtiter plates with 3000 cells/well and allowed to attach for 24 h at 37° C. […] After the cells were cultured for 48 h, the medium was aspirated and cells were treated with 200 μL fresh medium containing 2.41 mmol/L MTT. […] The reading reflected the number of viable cells and was expressed as a percentage of viable cells in the control. Both HCT-116 and H-1299 cells were cultured in McCoy's 5A medium. CCD-18Co and IMR-90 cells were cultured in Eagle's modified essential medium (EMEM). All of the above media were supplemented with 10% fetal bovine serum, 1% penicillin/streptomycin, and 1% glutamine, and the cells were kept in a 37° C. incubator with 95% humidity and 5% CO2.
# [10] = test system: human colon cancer cells HCT-116; assay: MTT growth inhibition of human cancer and normal cells (Part 2); format: cell-based; settings: for IC50: HCT-116, 48 h, 0 to 80 μM; for activity against cancer cells (MTT): HCT-116, 0 to 80 μM
# Method: as §6
# [11] = test system: human lung cancer cells H-1299; assay: as above; format: cell-based; settings: for IC50: H-1299, 48 h, 0 to 80 μM; for activity against cancer cells (MTT): H-1299, 0 to 80 μM
# Method: as §6
# [12] = in vitro; format: cell-based, human; settings: human; normal lung cells IMR-90, 48 h; read-out: IC50 (cytotoxicity, MTT)
# Method: as §6
# [13] = Chemical inhibition of [6]-shogaol metabolism in liver microsomes; format: in vitro ADME, human; settings: inhibitor 500 μM, 20 min pre-incubation, [6]-shogaol 50 μM, 30 min
# Method: Inhibitors ABT (500 μM) and 18β-GA (500 μM) or DMSO controls were pre-incubated with microsomes in experimental incubation mixture at 37° C. for 20 minutes before initiating the reaction by the addition of [6]-shogaol (50 μM). Reactions were terminated 30 minutes after substrate addition and incubation in a 37° C. water bath by equal volume of ice-cold acetonitrile with 2% acetic acid. The mixture was vortexed and underwent centrifugation at 13,000 g for 10 minutes. Aliquots of supernatant were stored at −20° C. until analysis.
# [14] = test system: human colon fibroblast cells CCD-18Co; assay: in vitro; format: cell-based
# Method: as §6
# [15] = test system: human lung fibroblast cells IMR-90; assay: in vitro; format: cell-based
# Method: as §6
# [16] = test system: HCT-116 cells; assay: TUNEL apoptosis assay (Part 2); format: cell-based, human; settings: HCT-116, 20 or 40 μM
# Method: (§7) HCT-116 and H1299 cells were seeded in 6-well plates at 1×10^5 cells/well and incubated at 37° C. in 5% CO2 incubator. After 24 hours, fresh media supplemented with DMSO (control), [6]-shogaol, M2, M6, or M13 metabolites (20 μM or 40 μM) were added to the wells. After 6 or 24 hours incubation at 37° C. in 5% CO2 incubator, cells were washed and pre-treated for 15 min at room temperature with a solution of 20 μg/ml proteinase K. Cells were then washed twice with phosphate buffer saline pH 7.4 (PBS) and fixed for 10 min at room temperature using 10% neutral formaldehyde solution. After 2 washes in ddH2O, cells were resuspended in 100 μL ddH2O and applied on silanized microscope slides. Slides were incubated overnight at 37° C., and washed twice with PBS. TUNEL assay was then carried out according to the manufacturer's protocol. Cells were observed under 400× power using a Zeiss microscope A1 (Thornwood, N.Y.). 10 fields per slide were evaluated, and TUNEL+ cells (with brown coloration in the nucleus) were expressed as a percentage of the total number of cells contained in a field.
# [17] = test system: H-1299 cells; assay: TUNEL apoptosis assay (Part 2); format: cell-based, human; settings: H-1299, 20 or 40 μM, 24 hours
# Method: as §7
structure (smiles),measurement,setting,value
"CCCCCCCCCC(CC(=O)CCc1ccc(O)c(OC)c1)SC[C@H](N)C(=O)O (some centres unmarked) [M2″, 5-cysteinyl-[10]-shogaol]",p53 expression (Western blot),[1],increase in p53 accumulation
same,p53 expression (Western blot),[2],increase in p53 accumulation
same,IC50,[3],13.3 µM
same,IC50,[4],28.8 µM
"CCCCCCCC(=O)CCc1ccc(O)c(OC)c1 [M11, 1-(4′-hydroxy-3′-methoxyphenyl)-decan-3-one]",apoptotic cells (TUNEL),"[5]; HCT-116, 40 μM",12.9%
same,apoptotic cells (TUNEL),"[5]; HCT-116, 80 μM",21.1%
same,apoptotic cells (TUNEL),"[6]; H-1299, 40 μM",8.3%
same,apoptotic cells (TUNEL),"[6]; H-1299, 80 μM",19.4%
same,IC50,[7],66.5 µM
same,IC50,[8],84 µM
same,IC50 at 48 h,[9],> 100 µM
same,IC50,[10]; Homo sapiens,84 µM
same,IC50,"[11]; Homo sapiens, NCI-H1299",66.5 µM
same,IC50 at 48 h,[12],> 100 µM
"CCCCCCCC(O)CCc1ccc(O)c(OC)c1 (centres unmarked) [M9, 1-(4′-hydroxy-3′-methoxyphenyl)-decan-3-ol]",apoptotic cells (TUNEL),"[5]; HCT-116, 40 μM",9.6%
same,apoptotic cells (TUNEL),"[5]; HCT-116, 80 μM",16.9%
same,apoptotic cells (TUNEL),"[6]; H-1299, 40 μM",7.4%
same,apoptotic cells (TUNEL),"[6]; H-1299, 80 μM",15.4%
same,IC50,[7],77.7 µM
same,IC50,[8],82.2 µM
same,IC50 at 48 h,[9],> 100 µM
same,IC50,[10]; Homo sapiens,82.2 µM
same,IC50,"[11]; Homo sapiens, NCI-H1299",82.5 µM
same,IC50 at 48 h,[12],> 100 µM
"CCCCCC(CC(=O)CCc1ccc(O)c(OC)c1)SC (centres unmarked) [M10, 5-methylthio-1-(4′-hydroxy-3′-methoxyphenyl)-decan-3-one]",IC50 at 48 h,[9],> 100 µM
same,IC50,[10]; Homo sapiens,78.2 µM
same,IC50,"[11]; Homo sapiens, NCI-H1299",60.6 µM
same,IC50 at 48 h,[12],> 100 µM
CC1(C)[C@@H](O)CC[C@]2(C)[C@H]3C(=O)C=C4[C@@H]5C[C@@](C)(C(=O)O)CC[C@]5(C)CC[C@@]4(C)[C@]3(C)CC[C@@H]12 [18β-glycyrrhetinic acid],effect on reductive metabolism of [6]-shogaol,[13],decimated the reductive metabolism
"CCCCCC(CC(O)CCc1ccc(O)c(OC)c1)SC (centres unmarked) [M12, 5-methylthio-1-(4′-Hydroxy-3′-methoxyphenyl)-decan-3-ol]",IC50 at 48 h,[9],> 100 µM
same,IC50,"[11]; Homo sapiens, NCI-H1299",69.9 µM
same,IC50 at 48 h,[12],> 100 µM
"CCCCCC(CC(O)CCc1ccc(O)c(OC)c1)SCC(NC(C)=O)C(=O)O (centres unmarked) [M4, 5-N-acetylcysteinyl-M6]",activity against cancer cells (MTT),[10],little to no activity
same,activity against cancer cells (MTT),[11],little to no activity
"CCCCCCCC(CC(=O)CCc1ccc(O)c(OC)c1)SC[C@H](N)C(=O)O (some centres unmarked) [M2′, 5-cysteinyl-[8]-shogaol]",p53 expression (Western blot),[1],increase in p53 accumulation
same,p53 expression (Western blot),[2],increase in p53 accumulation
same,IC50,[3],15.2 µM
same,IC50,[4],31.2 µM
"CCCCCC(CC(=O)CCc1ccc(O)c(OC)c1)SC[C@H](NC(C)=O)C(=O)O (some centres unmarked) [M5, 5-N-acetylcysteinyl-[6]-shogaol]",IC50,[14],> 100 µM
same,IC50,[10],54.3 µM
same,IC50,[11],72.6 µM
same,IC50,[15],> 100 µM
"CCCCCC(CC(=O)CCc1ccc(O)c(OC)c1)SC[C@H](NC(=O)CC[C@H](N)C(=O)O)C(=O)NCC(=O)O (some centres unmarked) [M13, 5-glutathiol-[6]-shogaol]",IC50,[14],75.5 µM
same,IC50,[10],45.5 µM
same,IC50,[11],47.8 µM
same,induction of apoptosis (TUNEL) versus DMSO,[16]; 6 hours,higher levels of apoptosis
same,induction of apoptosis (TUNEL) versus DMSO,[16]; 24 hours,Apoptosis was observed
same,induction of apoptosis (TUNEL) versus DMSO,[17],Apoptosis was observed
same,IC50,[15],57.5 µM
"CCCCCC(CC(O)CCc1ccc(O)c(OC)c1)SCC(N)C(=O)O (centres unmarked) [M1, 5-cysteinyl-M6]",activity against cancer cells (MTT),[10],little to no activity
same,activity against cancer cells (MTT),[11],little to no activity
"CCCCCCCC(=O)CCc1ccc(O)c(O)c1 [M8, 1-(3′,4′-dihydroxyphenyl)-decan-3-one]",IC50 at 48 h,[9],> 100 µM
same,IC50,[10]; Homo sapiens,58.8 µM
same,IC50 at 48 h,[12],> 100 µM
"Nn1nnc2ccccc21 [ABT, 1-Aminobenzotriazole]",effect on oxidative metabolism of [6]-shogaol,[13],abrogated
same,effect on reductive metabolism of [6]-shogaol,[13],did not inhibit reductive metabolism
